Results as given in PubChem BioAssay (NCI).
Values joined by “and” are separate entries in the source; they are usually repeats but may differ in a detail not shown here. Identical values can stand only once.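 Growth conditions: 96-well plates. Treatment: test compound, 48 hours, 5 concentrations. Analysis: linear interpolation between bracketing concentrations; unreached endpoints set to highest concentration. The concentration for 50% growth inhibition is given as GI50. The concentration for full growth arrest is given as TGI.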

Assays:
Assay in all cases: inhibition of tumour cell growth, NCI panel, 48 h
[1] = system: SF-268 CNS
[2] = system: HCT-15 colon
[3] = system: SN12C renal
[4] = system: NCI-H522 lung
[5] = system: TK-10 renal
[6] = system: CCRF-CEM leukemia
[7] = system: NCI-H226 lung
[8] = system: K-562 leukemia

Structure (SMILES) | TGI [1] | TGI [2] | TGI [3] | TGI [4] | TGI [5] | TGI [6] | TGI [7] | TGI [8] | GI50 [1] | GI50 [2] | GI50 [3] | GI50 [4] | GI50 [5] | GI50 [7] | GI50 [8] | GI50 [6]
O=C1OC(OC/C(Br)=C(/Br)COC2OC(=O)C(Cl)=C2Cl)C(Cl)=C1Cl (stereo not drawn) | 35.5 µM | 27.1 µM | 22.6 µM | 4.53 µM | 27 µM | 4.93 µM | > 70.7 µM | 5.85 µM | – | – | – | – | – | – | – | –
Cc1ccccc1NC(=O)c1cc2ccccc2cc1O | > 100 µM | > 100 µM | 9.18 µM | 9.39 µM | > 100 µM | – | > 100 µM | > 100 µM | 3.68 µM | 3.84 µM | 2.62 µM | 2.62 µM | 4.2 µM | 3.59 µM | 5.23 µM | –
CN(C)c1ncnc2c1ccn2C1OC(CO)C(O)C1O (stereo not drawn) | > 100 µM | > 66.2 µM | > 100 µM | > 100 µM | > 100 µM | 1.76 µM | > 100 µM | > 100 µM | 3.63 µM | 1.1 µM | 2.62 µM | > 100 µM | 1.83 µM | > 100 µM | 1.4 µM | 0.234 µM
CCc1nc(N)nc(N)c1C#CC(C)c1cc(-c2ccnc(C)c2)c2oc(C)nc2c1 (stereo not drawn) | 6.02 µM | 11.3 µM | 11.4 µM | 9.66 µM | 12 µM | 29.9 µM | 11.2 µM | 31.3 µM | < 0.01 µM | < 0.01 µM | < 0.0145 µM | 0.0222 µM | 0.126 µM | 0.913 µM | < 0.01 µM | < 0.01 µM
COc1cc(NC(=O)c2cc(O)c(C/C=C(\C)CCC=C(C)C)c(O)c2)cc2c1O[C@]1(C)CC[C@@H](O)C(C)(C)[C@H]1C2 | 5.74 µM | 7.53 µM | 12.1 µM | 6.5 µM | 13.7 µM | 7.21 µM | 16.2 µM | 4.88 µM | 1.56 µM | 2.09 µM | 2.9 µM | 2.02 µM | 3.42 µM | 3.34 µM | 0.957 µM | 0.463 µM
COc1ccc2c(c1OC)C(=O)O[C@@H]2[C@H]1c2c(c(Br)c3c(c2OC)OCO3)CCN1C | > 100 µM | > 100 µM | > 100 µM | > 100 µM | 94.5 µM | – | > 100 µM | > 100 µM | 18 µM | 4.67 µM | > 100 µM | 6.78 µM | 14.4 µM | 44.1 µM | 2.73 µM | –
Cn1ncnc1C1c2n[nH]c(=O)c3cc(F)cc(c23)NC1c1ccc(F)cc1 (stereo not drawn) | > 100 µM | > 100 µM | > 100 µM | > 100 µM | > 100 µM | > 100 µM | > 100 µM | > 100 µM | 3.3 µM | > 100 µM | 4.43 µM | > 100 µM | > 34.2 µM | > 100 µM | > 100 µM | 3.13 µM
O=[N+]([O-])c1cc2c(ccc3occc32)o1 | 12.8 µM | 5.97 µM | > 100 µM | 4.45 µM | 31.5 µM | 7.88 µM | 31.7 µM | 8.03 µM | 2.21 µM | 1.96 µM | 2.96 µM | 1.67 µM | 5.46 µM | 4.04 µM | 2.14 µM | 1.87 µM
Cc1ccc(-c2c3c(N)c4c(nc3nc3c2c(C)nn3-c2ccccc2)CCC4)cc1 | 11 µM | 5.15 µM | 3.74 µM | 40.3 µM | 5.42 µM | 7.2 µM | 53.7 µM | 6.56 µM | 3.26 µM | 2.11 µM | 1.83 µM | 18.2 µM | 2.43 µM | 22.1 µM | 2.42 µM | 2.54 µM
Clc1ccc(/C=C/c2nc(Cl)c(-c3ccc(Cl)cc3)c(Cl)n2)cc1 | > 100 µM | > 100 µM | > 100 µM | > 100 µM | > 100 µM | 84.8 µM | > 100 µM | > 100 µM | – | – | – | – | – | – | – | –
CN(C)N=Nc1nn(C(=O)Nc2ccc(Cc3ccccc3)cc2)c2ccccc12 | > 100 µM | > 100 µM | > 100 µM | > 100 µM | > 100 µM | > 100 µM | > 100 µM | > 100 µM | 17.1 µM | 0.396 µM | > 100 µM | 1.9 µM | > 100 µM | > 100 µM | 0.0373 µM | 4.42 µM
COc1ccc(OC)c(/C=N/N=C2\C(=O)Nc3c(Cl)cc(Cl)cc32)c1 | – | > 100 µM | > 100 µM | – | > 100 µM | > 100 µM | > 100 µM | > 100 µM | – | – | – | – | – | – | – | –
COC1OC(C(C)O)C2OC(C)(C)OC12 (stereo not drawn) | > 100 µM | > 100 µM | > 100 µM | > 100 µM | > 100 µM | > 100 µM | > 100 µM | > 100 µM | – | – | – | – | – | – | – | –
Nc1nc(Cl)nc2c1ncn2[C@@H]1O[C@H](COS(N)(=O)=O)[C@@H](O)[C@H]1O | 0.0768 µM and 0.088 µM | 0.0881 µM and 0.168 µM | 0.0417 µM and 0.0868 µM | 0.0244 µM and 0.0623 µM | 0.0581 µM and 0.0654 µM | 0.101 µM | 0.0401 µM and 0.0463 µM | 0.118 µM | 0.0234 µM and 0.0269 µM | 0.0272 µM and 0.0313 µM | 0.00377 µM | 0.00503 µM and 0.0212 µM | 0.021 µM and 0.0211 µM | 0.0174 µM and 0.0167 µM | 0.017 µM and 0.0199 µM | 0.0159 µM and 0.027 µM
COc1cc2c(cc1OCCCCCn1c3ccccc3c3ccccc31)N=C[C@@H]1CCCN1C2=O | 3.74 µM | 3.48 µM | 4.16 µM | – | 4.84 µM | – | 8.48 µM | – | 1.91 µM | 1.67 µM | 1.94 µM | – | 2.25 µM | 2.49 µM | – | –
NS(=O)(=O)c1ccc(N2N=C(c3cccs3)CC2c2ccccc2O)cc1 (stereo not drawn) | 4.48 µM | > 33.3 µM | 4.78 µM | 1.51 µM | 5.47 µM | > 33.3 µM | 17.4 µM | 15.3 µM | 1.16 µM | 1.35 µM | 1.2 µM | 0.644 µM | 1.09 µM | 3.4 µM | 1.24 µM | 1.4 µM
Nc1cc(-c2ccccc2)n(C(=O)Nc2ccc(Oc3ccccc3)cc2)n1 | > 100 µM | > 100 µM | > 100 µM | > 100 µM | > 100 µM | 93.3 µM | > 100 µM | > 100 µM | 30.8 µM | > 100 µM | 80.3 µM | 54.7 µM | 69.7 µM | 49.5 µM | > 100 µM | 18.9 µM
